From BindingDB's records for doi:10.1007/s10822-022-00478-x (Roche Innovation Center Basel, F. Hoffmann-La Roche Ltd., 2022)

Molecular target: cAMP and cAMP-inhibited cGMP 3',5'-cyclic phosphodiesterase 10A (Homo sapiens, UniProt Q9Y233)
Test: PDE10A assay
Procedure, shortened: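 Scintillation proximity readout of [3H]cGMP hydrolysis (50 nM final substrate, 15 min) by 2 ng/well human PDE10A after 15 min compound preincubation at RT, pH 7.5 with MgCl2. Four-parameter logistic fit gave IC50, reported as pIC50.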

IC50 [nM]	Structure (SMILES)
87	COCc1cc(C(=O)Nc2ccn3nc(-c4ccccc4)nc3c2)n(C)n1 [Roche-Dataset for PDE10A, Compound 390]
197	CNC(=O)c1cc2[nH]c(-c3ccccc3)nc2cc1NC(=O)c1cc(C)n(C)n1 [Roche-Dataset for PDE10A, Compound 391]
43	Cc1ncc(C)n2nc(CCc3nc(N4CC[C@@H](C)[C@H]4C)nn3C)nc12 [Roche-Dataset for PDE10A, Compound 392]
4.58	Cc1c(Cl)ccc2nc(/C=C/c3nc(N4CCCC4)n(C)n3)nn12 [Roche-Dataset for PDE10A, Compound 393]
570	Cn1ncc(C(=O)O)c1C(=O)Nc1ccn2nc(-c3ccnc(F)c3)nc2c1 [Roche-Dataset for PDE10A, Compound 394]
17400	Cc1[nH]c(-c2ccncc2)nc1CCN1C(=O)c2ccccc2C1=O [Roche-Dataset for PDE10A, Compound 395]
107	Cc1nn(C)c2nc(OCc3nc(-c4ccccc4)cn3C)ncc12 [Roche-Dataset for PDE10A, Compound 396]
1.86	Cn1ncc(C(=O)N2CCC2)c1C(=O)Nc1ccc2sc(N3CCOCC3)nc2c1 [Roche-Dataset for PDE10A, Compound 397]
354	O=C(Nc1cc(Cl)ncc1Br)c1ccc2cc(-c3ccccc3)nn2c1 [Roche-Dataset for PDE10A, Compound 399]
82	Cc1ncc(C)n2nc(CCc3ncn(-c4ccccc4)n3)nc12 [Roche-Dataset for PDE10A, Compound 400]
16	Cn1ncc(C(N)=O)c1C(=O)Nc1ccn2nc(-c3ccccc3)nc2c1 [Roche-Dataset for PDE10A, Compound 401]
3.25	Cn1ncc(C(=O)N2CCCC2)c1C(=O)Nc1ccn2nc(N3CCOCC3)nc2c1 [Roche-Dataset for PDE10A, Compound 402]
7.71	Cn1cc(-c2ccccc2)nc1COc1nc2ccccc2nc1N1CCCC1 [Roche-Dataset for PDE10A, Compound 403]
444	CN(C)C(=O)c1cc(NC(=O)c2nc(C3CC3)ccc2Nc2cncnc2)n(C)n1 [Roche-Dataset for PDE10A, Compound 404]
12	Cc1c(Br)cn2nc(/C=C/c3nc(N4CCCC4)nn3C)nc2c1C [Roche-Dataset for PDE10A, Compound 406]
628	Cn1nc(N2CCCC2)nc1CCc1nc2c(F)cc(F)cn2n1 [Roche-Dataset for PDE10A, Compound 407]
2.22	Cn1ncc(C(=O)N2CCC2)c1C(=O)N[C@@H]1CCn2cc(-c3ccccc3Cl)nc2C1 [Roche-Dataset for PDE10A, Compound 408]
63	CN(C)C(=O)c1nn(C)cc1C(=O)Nc1ccn2cc(-c3ccccc3)nc2n1 [Roche-Dataset for PDE10A, Compound 409]
179	Cn1ncc(S(C)(=O)=O)c1C(=O)Nc1ccc2cc(-c3ccccc3)nn2c1 [Roche-Dataset for PDE10A, Compound 410]
61	COc1nc(OCc2nc(-c3ccccc3)cn2C)nc2ccccc12 [Roche-Dataset for PDE10A, Compound 411]
16	Cn1ncc(C(=O)N2CCC2)c1C(=O)Nc1ccc2nc(N3CCOCC3)nn2c1 [Roche-Dataset for PDE10A, Compound 412]

IC50 [nM]	Structure (SMILES)
302	O=C(Nc1ccnc(Cl)c1)c1cn(-c2ccc3ccccc3n2)cn1 [Roche-Dataset for PDE10A, Compound 414]
2.45	Cn1ncc(C(=O)N2CCOCC2)c1C(=O)Nc1ccc2nc(N3CCCC3)nn2c1 [Roche-Dataset for PDE10A, Compound 415]
88	Cn1cc(S(C)(=O)=O)c(C(=O)Nc2ccc3cc(-c4ccccc4)nn3c2)n1 [Roche-Dataset for PDE10A, Compound 416]
2.62	CN(c1nc2cc(NC(=O)c3c(C(=O)N4CCOCC4)cnn3C)ccn2n1)C1CC1 [Roche-Dataset for PDE10A, Compound 418]
249	O=C(Nc1cc(Cl)ncn1)c1ccc2cc(-c3ccccc3)nn2c1 [Roche-Dataset for PDE10A, Compound 419]
194	O=C(Nc1ccn2nc(-c3ccccc3)nc2c1)c1onc2ccccc12 [Roche-Dataset for PDE10A, Compound 420]
8.81	CN(C)C(=O)c1cnn(C)c1C(=O)Nc1ccn2nc(-c3ccnc(S(C)(=O)=O)c3)nc2c1 [Roche-Dataset for PDE10A, Compound 421]
4.83	Cn1ncc(C(=O)N2CCC2)c1C(=O)Nc1cc2nc(N3CCOCC3)nn2cn1 [Roche-Dataset for PDE10A, Compound 422]
0.24	O=C(Nc1ccc2[nH]c(-c3ccccc3)nc2c1)c1nc(C2CC2)ccc1Nc1cncnc1 [Roche-Dataset for PDE10A, Compound 423]
1340	CCc1nc(C)c(C(=O)Nc2cc3nc(-c4ccccc4)[nH]c3cc2C(=O)O)o1 [Roche-Dataset for PDE10A, Compound 424]
5	Cn1ncc(C(=O)N2CCOCC2)c1C(=O)Nc1cc2nc(N3CCCC3)nn2cn1 [Roche-Dataset for PDE10A, Compound 426]
15	CC(C)OC(=O)c1c(C(=O)Nc2ccn3nc(-c4ccccc4)nc3c2)cnn1C [Roche-Dataset for PDE10A, Compound 428]
429	Cn1nc(N2CCCC2)nc1/C=C/c1nc(N2CCCC2)n(C)n1 [Roche-Dataset for PDE10A, Compound 429]
355	CNC(=O)c1cc2[nH]c(-c3ccccc3)nc2cc1NC(=O)c1cc(C)n[nH]1 [Roche-Dataset for PDE10A, Compound 430]
7.54	Cc1nc(C(F)(F)F)n2nc(CCc3nc(N4CCCC4)nn3C)nc2c1C [Roche-Dataset for PDE10A, Compound 432]
208	Cn1ncc(Cl)c1C(=O)Nc1ccn2nc(-c3ccccc3)nc2c1 [Roche-Dataset for PDE10A, Compound 433]
3.43	O=C(Nc1ccnn1-c1ccccn1)c1nc(C2CC2)ccc1Nc1cncnc1 [Roche-Dataset for PDE10A, Compound 435]
18	Cc1cnc(C)n2nc(CCc3nc(N4CCCC4)nn3C3CC3)nc12 [Roche-Dataset for PDE10A, Compound 436]
150	O=C(Nc1ccn2nc(-c3ccccc3)nc2c1)c1conc1C(=O)NC1CC1 [Roche-Dataset for PDE10A, Compound 437]
879	Cn1ncc(C(=O)N2CCC2)c1C(=O)Nc1cc(-c2ccccc2Cl)nn1C1CCCC1 [Roche-Dataset for PDE10A, Compound 438]
69	CNC(=O)c1cc2[nH]c(-c3ccccc3)nc2cc1NC(=O)c1c(C(=O)N2CCC2)cnn1C [Roche-Dataset for PDE10A, Compound 439]

IC50 [nM]	Structure (SMILES)
12	Cc1ncc(C)n2nc(/C=C/c3nc(-c4cccn4C)nn3C)nc12 [Roche-Dataset for PDE10A, Compound 440]
0.81	CN(C)C(=O)c1cnn(C)c1C(=O)Nc1cc2nc(-c3ccccc3)nn2cn1 [Roche-Dataset for PDE10A, Compound 442]
20	Cc1cnc(C)n2nc(/C=C/c3nc(N4CCCC4)n(C)n3)nc12 [Roche-Dataset for PDE10A, Compound 443]
3.41	O=C(Nc1ccn(Cc2ccccc2)n1)c1nc(C2CC2)ccc1Nc1cncnc1 [Roche-Dataset for PDE10A, Compound 446]
28	Cc1ncc(C)n2nc(CCc3nc(N4CC[C@@H](C)C4)nn3C)nc12 [Roche-Dataset for PDE10A, Compound 447]
563	Cc1cnccc1NC(=O)c1ccc2cc(-c3ccccc3)nn2c1 [Roche-Dataset for PDE10A, Compound 448]
46	O=C(NCCN1CCCc2ccccc21)c1nc(C2CC2)cnc1Nc1cncnc1 [Roche-Dataset for PDE10A, Compound 449]
0.87	CN(c1nc2cc(NC(=O)c3c(C(=O)N4CCC4)cnn3C)ccn2n1)C1CC1 [Roche-Dataset for PDE10A, Compound 450]
574	O=C(NCCN1CCc2ccccc2C1=O)c1nc(C2CC2)cnc1Nc1cncnc1 [Roche-Dataset for PDE10A, Compound 451]
14	CNC(=O)c1cc2[nH]c(-c3ccccc3)nc2cc1NC(=O)c1ccnn1C [Roche-Dataset for PDE10A, Compound 452]
195	CNC(=O)c1cc2[nH]c(-c3ccccc3)nc2cc1NC(=O)c1c(C(=O)N2CCOCC2)cnn1C [Roche-Dataset for PDE10A, Compound 453]
76	O=C(Nc1ccn2nc(-c3ccccc3)nc2c1)c1cc(Cl)ccn1 [Roche-Dataset for PDE10A, Compound 454]
748	Cc1ncc(C)n2nc(CCc3nc(C)n(-c4ccccc4)n3)nc12 [Roche-Dataset for PDE10A, Compound 456]
2410	Cn1ncc(C(=O)N2CCOCC2)c1C(=O)N[C@@H]1CCn2cc(-c3ccccc3Cl)nc2C1 [Roche-Dataset for PDE10A, Compound 457]
66	Cn1ncc(C(=O)O)c1C(=O)Nc1ccn2nc(-c3cccnc3F)nc2c1 [Roche-Dataset for PDE10A, Compound 458]
3.12	CN(C)c1nc2cc(NC(=O)c3c(C(=O)N4CCC4)cnn3C)ccc2s1 [Roche-Dataset for PDE10A, Compound 461]
4.23	Cc1ccc2nc(OCc3nc(-c4ccccc4)cn3C)c(Cl)nc2c1 [Roche-Dataset for PDE10A, Compound 463]
824	Cn1cc(-c2ccccc2)nc1/C=C/c1ncc(Cl)nc1Cl [Roche-Dataset for PDE10A, Compound 465]
23	CNC(=O)c1cc2[nH]c(-c3ccccc3)nc2cc1NC(=O)c1ccnnc1 [Roche-Dataset for PDE10A, Compound 466]
10000	Cn1cc(-c2ccccc2)nc1CCc1ccccn1 [Roche-Dataset for PDE10A, Compound 467]
0.91	Cn1nc(-c2ccc3ccccc3n2)cc1NC(=O)c1c(C(=O)N2CCC2)cnn1C [Roche-Dataset for PDE10A, Compound 468]
